Results: publication PMC3689833, “Neurochemical Changes in the Mouse Hippocampus Underlying the Antidepressant Effect of Genetic Deletion of P2X7 Receptors” (PLoS ONE, 2013)

Key:
[1] = test system: BDNF level in hippocampal slices; assay: BDNF protein assay (ELISA), in vitro study in hippocampal slices; assay type: cell-based, mouse; details: for BDNF level in hippocampal slices in the presence of BzATP: + BzATP 100 µM, BBG 100 nM, DHPG 100 µM; for BDNF level in hippocampal slices in the presence of BzATP / effect on the inhibitory effect of BzATP on BDNF level / effect on basal BDNF level, compound alone (no BzATP): RO-256981 3 µM, MCPG 200 µM; for BDNF level in hippocampal slices, compound alone: RO-256981 3 µM 15 min, DHPG 100 µM 10 min; for effect on the inhibitory effect of BzATP on BDNF level / effect on basal BDNF level, compound alone (no BzATP): CNQX 10 µM, TCN-201 10 µM
Description: The P2rx7 wild type and knockout mice were anesthetized under light CO2 inhalation and decapitated. The hippocampus was dissected in ice-cold Krebs solution saturated with 95% O2 and 5% CO2, sectioned (400 µm thick slices) using a McIlwain tissue chopper and incubated in 2 ml of modified Krebs solution in the presence of 1 ml Hibernate medium, ascorbic acid (300 µM) and Na2EDTA (30 µM) for 60 min. The medium was bubbled continuously with 95% O2 and 5% CO2 and maintained at 37°C. The P2rx7 agonist, BzATP, was added to the incubation solution for 30 min, whereas BBG was applied 15 min before BzATP application. RO-256981, 6-cyano-7-nitroquinoxaline-2,3-dione (CNQX) and 3-Chloro-4-fluoro-N-[4[[2(phenylcarbonyl)hydrazino]carbonyl]benzyl] benzenesulfonamide (TCN-201) were applied for 15 min, while MCPG was administered for 30 min. The group I metabotropic glutamate receptor agonist, dihydroxyphenylglycine (DHPG), was administered for 10 min. The DHPG, MCPG, and RO-256981 dosages were chosen based on previous studies, [47], [48]. In the experiments with BzATP, Mg^2+ was omitted from the incubation solution. The hippocampal slices were collected, frozen on dry ice and stored at −70°C until further investigation. Each experimental group contained 3–4 mice.
At the time of analysis, the samples were removed from the freezer and weighed. The BDNF extraction procedure was performed in accordance with the methods of a previous study. For the BDNF assays, 2 ml lysis buffer (100 mM PIPES, pH 7, 500 mM NaCl, 0.2% Triton X-100, 0.1% NaN3, 2% BSA, 2 mM EDTA, 200 µM PMSF, 10 µg/mL aprotinin, 1 µg/mL leupeptin, and 0.5 mM sodium vanadate) was added to each sample, and the hippocampus was sonicated at power level 2 using pulses at 1 sec intervals for 10–15 sec. Subsequently, the samples were centrifuged at 16,000 × g for 30 min at 4°C. 100 µl aliquots of the resulting supernatants were removed and diluted with 400 µl of DPBS buffer (137 mM NaCl, 2.68 mM KCl, 1.47 mM KH2PO4, 8.1 mM Na2HPO4 (pH 7.35), 0.9 mM CaCl2·H2O, and 0.5 mM MgCl2·H2O). The supernatants were collected and stored at −70?C until further analysis. For the total free BDNF measurement, the samples were acid treated with 1 µl of 1 N HCl for each 50 µl of diluted samples to decrease the pH to 2.5, followed by incubation at room temperature for 15 min. The samples were neutralized with 1 µl of 1 N NaOH for each 50 µl of diluted samples. The levels of BDNF (both precursor and mature forms) expression were evaluated using an enzyme-linked immunosorbent assay (ELISA) kit and a BDNF Emax ImmunoAssay System (Promega Corporation, Madison, WI, USA), which is specific for mouse BDNF protein, according to the manufacturer’s instructions. The BDNF levels were calculated by plotting the optical density (OD) of each sample against the standard curve. A seven-point standard curve using two-fold serial dilutions in Reagent Diluent (according the manufacturer’s instructions) and a high standard of 500 pg/ml were used for the determination of BDNF levels. The assay detection limits were <15 pg/ml. Absorbance was measured at 450 nm using a Perkin-Elmer Victor 3V 1420 Multilabel Counter.

[2] = test system: P2rx7+/+ and P2rx7−/− mice; assay: Sucrose preference test (SPT), LPS-induced anhedonia; assay type: in vivo, mouse; details: for inhibitory effect on LPS-induced anhedonia in P2rx7−/− mice: acute treatment; for effect on LPS-induced anhedonia in P2rx7−/− mice: subacute 4-day treatment, compared with P2rx7+/+
Description: The experiments were performed using the two-bottle sucrose preference paradigm. The decreased preference for sucrose vs. water in this test has been proposed to reflect impaired sensitivity towards reward and to model anhedonia. Mice were offered a choice of 2% sucrose solution or water during 12-hour nocturnal periods (starting at 19∶00). The bottles were weighed before and after each test session to monitor sucrose and water consumption. The relative position of the sucrose and water bottles were swapped every night to avoid place preferences. The baseline sucrose intake was measured under a habituation period of 3–4 days before administering the treatments, and the mean volume ingested over the last 3 training sessions was used as a baseline value. The sucrose consumption was measured for 4 consecutive nights after LPS (0.2 mg/kg i.p.) or saline administration and expressed as g/100 g body weight or as a percentage of the baseline (%).

[3] = test system: acute hippocampal slices; assay: [3H]Glutamate and endogenous glutamate release from acute hippocampal slices; assay type: cell-based, mouse
Description: The [^3H]Glu release experiments were conducted using the method described in our previous papers. Briefly, the mice were anaesthetized under light CO2 inhalation, and subsequently decapitated. The hippocampus was dissected from each mouse in ice-cold Krebs solution saturated with 95% O2 and 5% CO2, sectioned (400-µm-thick slices) using a McIlwain tissue chopper and incubated in 1 ml of modified Krebs solution (113 mM NaCl, 4.7 mM KCl, 2.5 mM CaCl2, 1.2 mM KH2PO4, 1.2 mM MgSO4, 25.0 mM NaHCO3, and 11.5 mM glucose), pH 7.4, in the presence of 5 µCi/ml [^3H]glutamic acid ([^3H]Glu, 9.8×10^−8 M, specific activity 51 Ci/mmol; Perkin Elmer) for 45 min. The medium was bubbled with 95% O2 and 5% CO2 and maintained at 32°C. After loading, the slices were continuously superfused with 95% O2 and 5% CO2-saturated modified Krebs solution (flow rate: 0.7 ml/min).
Subsequently, the perfused samples were collected over a 3-min period and measured for tritium content. At 6 min after the start of the collection, the slices were subjected to a 6-min perfusion of the agonist (ATP) at various concentrations (1, 3, 6 and 10 mM) and then changed to normal Krebs solution until the end of the collection period. In some experiments, the P2X1 receptor antagonist, NF449 (100 nM), or the selective P2rx7 antagonist Brilliant blue G (100 nM) was applied to the perfusion solution at 15 min before the beginning of the ATP perfusion.
The radioactivity released from the preparations was measured using a Packard 1900 Tricarb liquid scintillation spectrometer, using Ultima Gold Scintillation cocktail. The release of tritium was expressed as a percentage of the amount of radioactivity in the tissue at the sample collection time (fractional release). The tritium uptake in the tissue was determined as the sum of release+the tissue content after the experiment and expressed in Bq/g. For the evaluation of the basal tritium outflow the fractional release measured in four consecutive 3 min samples under drug free conditions were taken into account. The ATP-induced [^3H]Glu efflux calculated as the net release in response to the respective stimulus by subtracting the release before the stimulation from the values measured after stimulation. Selected samples collected under resting conditions and during the peak of the ATP-evoked response were subjected to further HPLC analyses.
The separation of pre-column dansylated amino acids was performed using a gradient elution-working mode at ambient temperature. The mobile phase A consisted of 5/95 (v/v) 78/22 acetonitrile/methanol in 15 mM ammonium formate buffer, and the mobile phase B was composed of 90/10 (v/v 78/22) acetonitrile/methanol in ammonium formate buffer, pH 3.7. The mobile phase B increased linearly (at 0.11 min to 50% 17 min to 72% and 26 min to 100%, followed by a final run to 54 min), the flow rate was 0.7 ml/min. The analytical and the trap column were equilibrated for 10 min, and enrichment and clean-up procedures were performed. The dansylated derivatives were detected using an absorbance detector (Agilent 1100) at a 319 nm wavelength. The retention time of the dansylated Glu was 11.4 min. Pre-column derivatization was performed by mixing 50 µl of dansyl chloride prepared by dissolving 5 mg 5-(dimethylamino)naphthalene-1-sulfonyl chloride in acetonitrile daily and adding 50 µl of 2 M sodium carbonate, which contained norvaline (20 µM) as an internal standard in 25 µl of sample. After a 10-min reaction time at 60°C, the mixture was acidified using 25 µl of 6 M formic acid and injected onto the “trap-column”.

[4] = P2rx7+/+ slices, BzATP 100 µM 30 min, Mg2+-free

NC(C(=O)O)c1cc(O)cc(O)c1 (stereo not shown) [DHPG, 3,5-dihydroxyphenylglycine]
BDNF level in hippocampal slices in the presence of BzATP ([1]; P2rx7+/+ slices, Mg2+-free): 54.14 ± 1.92 pg/mL | BDNF level in hippocampal slices, compound alone ([1]; P2rx7+/+ slices): 41.59 ± 0.40 pg/mL

O=C(CC12CC3CC(CC(C3)C1)C2)Nc1cccc2nc(NCCNCCO)ccc12 [AZ-10606120]
amount of sucrose consumed on the 3rd day after LPS injection ([2]; P2rx7+/+ mice, acute injection 2 mg/kg i.p. 30 min before LPS, vs control): significantly higher | amount of sucrose consumed on the day after LPS injection ([2]; P2rx7+/+ mice, subacute treatment 2 mg/kg i.p., vs control): significantly higher | inhibitory effect on LPS-induced anhedonia in P2rx7−/− mice [2]: completely absent | effect on LPS-induced anhedonia in P2rx7−/− mice [2]: significantly attenuated

Nc1ncnc2c1ncn2[C@@H]1O[C@H](COP(=O)(O)OP(=O)(O)OP(=O)(O)O)[C@@H](OC(=O)c2ccc(C(=O)c3ccccc3)cc2)[C@H]1O [BzATP, 3′-O-(4-benzoyl-benzoyl)adenosine 5′-triphosphate]
BDNF level in hippocampal slices [1, 4]: 13.85 ± 0.98 pg/mL | decrease of basal BDNF level [1, 4]: 25.73% | effect on BDNF level ([1]; P2rx7−/− slices, BzATP 100 µM, Mg2+-free): without significantly affecting

CN(C)CCCC1(c2ccc(F)cc2)OCc2cc(C#N)ccc21 (stereo not shown) [citalopram]
inhibitory effect on LPS-induced anhedonia in P2rx7−/− mice [2]: largely preserved | effect on LPS-induced anhedonia in P2rx7−/− mice [2]: largely preserved

N#Cc1cc2[nH]c(=O)c(=O)[nH]c2cc1[N+](=O)[O-] [CNQX, 6-cyano-7-nitroquinoxaline-2,3-dione]
effect on the inhibitory effect of BzATP on BDNF level ([1]; P2rx7+/+ slices, BzATP 100 µM): occluded | effect on basal BDNF level, compound alone (no BzATP) ([1]; P2rx7+/+ slices): decreased

Nc1ncnc2c1ncn2[C@@H]1O[C@H](COP(=O)(O)OP(=O)(O)OP(=O)(O)O)[C@@H](O)[C@H]1O [ATP]
net release of tritium ([3H]Glu, fractional release) ([3]; P2rx7+/+ slices, 10 mM ATP, 6-min perfusion): 3.34±0.57% | endogenous glutamate level in effluent (HPLC) ([3]; P2rx7+/+ slices, 10 mM ATP, peak vs resting): remarkable elevation | efflux of [3H]Glu ([3]; P2rx7+/+ slices, 6-min perfusion, 1–10 mM): concentration-dependent increase | net [3H]Glu efflux (fractional release) ([3]; P2rx7−/− slices, 10 mM ATP): 0.25±0.43%

C[C@@H](CN1CCC(Cc2ccccc2)CC1)[C@@H](O)c1ccc(O)cc1.O=C(O)/C=C\C(=O)O [RO-256981, (αR,βS)-α-(4-Hydroxyphenyl)-β-methyl-4-(phenylmethyl)-1-piperidinepropanol maleate]
BDNF level in hippocampal slices in the presence of BzATP ([1]; P2rx7+/+ slices, Mg2+-free): 15.75 ± 0.44 pg/mL | effect on the inhibitory effect of BzATP on BDNF level ([1]; P2rx7+/+ slices, BzATP 100 µM): occluded | effect on basal BDNF level, compound alone (no BzATP) ([1]; P2rx7+/+ slices): decreased | BDNF level in hippocampal slices, compound alone ([1]; P2rx7+/+ slices): 15.20 ± 0.12 pg/mL

O=C(NNC(=O)c1ccc(CNS(=O)(=O)c2ccc(F)c(Cl)c2)cc1)c1ccccc1 [TCN-201, 3-Chloro-4-fluoro-N-[4[[2(phenylcarbonyl)hydrazino]carbonyl]benzyl] benzenesulfonamide]
effect on the inhibitory effect of BzATP on BDNF level ([1]; P2rx7+/+ slices, BzATP 100 µM): occluded | effect on basal BDNF level, compound alone (no BzATP) ([1]; P2rx7+/+ slices): unaffected

CC(N)(C(=O)O)c1ccc(C(=O)O)cc1 (stereo not drawn) [MCPG, α-Methyl-4-carboxyphenylglycine]
BDNF level in hippocampal slices in the presence of BzATP ([1]; P2rx7+/+ slices, Mg2+-free): 6.09 ± 1.17 pg/mL | decrease of BDNF level in the presence of BzATP ([1]; P2rx7+/+ slices, BzATP 100 µM + MCPG 200 µM): 67.34% | effect on the inhibitory effect of BzATP on BDNF level ([1]; P2rx7+/+ slices, BzATP 100 µM): did not antagonize | effect on basal BDNF level, compound alone (no BzATP) ([1]; P2rx7+/+ slices): significantly diminished

O=C(Nc1cc(C(=O)Nc2ccc(S(=O)(=O)[O-])cc2S(=O)(=O)[O-])cc(C(=O)Nc2ccc(S(=O)(=O)[O-])cc2S(=O)(=O)[O-])c1)Nc1cc(C(=O)Nc2ccc(S(=O)(=O)[O-])cc2S(=O)(=O)[O-])cc(C(=O)Nc2ccc(S(=O)(=O)[O-])cc2S(=O)(=O)[O-])c1.[Na+].[Na+].[Na+].[Na+].[Na+].[Na+].[Na+].[Na+] [NF449, 4,4′,4′′,4′′′-[Carbonylbis(imino-5,1,3-benzenetriyl-bis(carbonylimino))]tetrakis-1,3-benzenedisulfonic acid, octasodium salt]
residual ATP-evoked [3H]Glu efflux in presence of antagonist ([3]; P2rx7−/− slices, ATP 10 mM, antagonist 100 nM 15 min before ATP): sensitive to inhibition
